Assay results reported in the NIST ThermoML archive (doi:10.1016/j.jct.2006.10.016).
“And” between values parts separate entries of the source, which are not always exact repeats. Equal entries are not always repeated.

Experiments:
[1] = 101 kPa, Liquid
[2] = xn = mol fraction of the nth substance listed; settings: 101 kPa, Liquid

C[S+](C)[O-] [dimethyl sulfoxide]
[1]
Settings | mass density | viscosity [mPa·s]
303.15 K | 1090.7 kg/m3 | 1.832
308.15 K | 1084.7 kg/m3 | 1.67
313.15 K | 1082.3 kg/m3 | 1.537
318.15 K | 1075.1 kg/m3 | 1.408
323.15 K | 1070.1 kg/m3 and 1070 kg/m3 | 1.289

C[S+](C)[O-] [dimethyl sulfoxide] + CO
[2]
Settings | mass density, 303.15 K [kg/m3] | mass density, 308.15 K [kg/m3] | mass density, 313.15 K [kg/m3] | mass density, 318.15 K [kg/m3] | mass density, 323.15 K [kg/m3] | viscosity, 303.15 K [mPa·s] | viscosity, 308.15 K [mPa·s] | viscosity, 313.15 K [mPa·s] | viscosity, 318.15 K [mPa·s] | viscosity, 323.15 K [mPa·s]
x1 = 0.0998 | 837.8 | 834.7 | 829.9 | 825.2 | 820.4 | 0.5976 | 0.5587 | 0.5228 | 0.4918 | 0.4582
x1 = 0.2004 | 886 | 882.3 | 877.3 | 872.2 | 867.1 | 0.678 | 0.6322 | 0.591 | 0.5532 | 0.5163
x1 = 0.3007 | 925 | 921 | 916.3 | 910.8 | 905.7 | 0.7684 | 0.7147 | 0.6694 | 0.6281 | 0.5857
x1 = 0.3998 | 959.3 | 955 | 950.7 | 944.7 | 939.6 | 0.8719 | 0.8091 | 0.7576 | 0.7073 | 0.6605
x1 = 0.4996 | 988.4 | 983.6 | 979.6 | 973.3 | 968.4 | 0.9887 | 0.9164 | 0.8549 | 0.7972 | 0.7426
x1 = 0.6008 | 1013.9 | 1009 | 1005.6 | 999.4 | 994.4 | 1.123 | 1.037 | 0.9676 | 0.9008 | 0.8357
x1 = 0.699 | 1035.3 | 1030.1 | 1026.9 | 1020.9 | 1016 | 1.272 | 1.172 | 1.09 | 1.012 | 0.9359
x1 = 0.8011 | 1055.5 | 1050.3 | 1047.7 | 1040.9 | 1036.3 | 1.442 | 1.326 | 1.226 | 1.131 | 1.045
x1 = 0.8997 | 1073.7 | 1068.3 | 1065.8 | 1059 | 1054 | 1.629 | 1.492 | 1.379 | 1.269 | 1.167
x1 = 1 | 1090.7 | 1084.7 | 1082.3 | 1075.1 | 1070.1 | 1.832 | 1.67 | 1.537 | 1.408 | 1.289

CCO [ethanol]
[1]
Settings | mass density [kg/m3] | viscosity [mPa·s]
303.15 K | 783.4 | 1.086
308.15 K | 779 | 0.9732
313.15 K | 774.6 | 0.8596
318.15 K | 769.8 | 0.8284
323.15 K | 766.1 | 0.7493

CCO [ethanol] + C[S+](C)[O-]
[2], x2 = 0
Settings | mass density [kg/m3] | viscosity [mPa·s]
303.15 K | 783.4 | 1.086
308.15 K | 779 | 0.9732
313.15 K | 774.6 | 0.8596
318.15 K | 769.8 | 0.8284
323.15 K | 766.1 | 0.7493

CO [methanol]
[1]
Settings | mass density [kg/m3] | viscosity [mPa·s]
303.15 K | 781.3 | 0.5178
308.15 K | 778.2 | 0.4843
313.15 K | 772.4 | 0.4515
318.15 K | 767.8 | 0.4233
323.15 K | 762.7 | 0.395

CO [methanol] + C[S+](C)[O-]
[2], x2 = 0
Settings | mass density [kg/m3] | viscosity [mPa·s]
303.15 K | 781.3 | 0.5178
308.15 K | 778.2 | 0.4843
313.15 K | 772.4 | 0.4515
318.15 K | 767.8 | 0.4233
323.15 K | 762.7 | 0.395

CCCO [propan-1-ol]
[1]
Settings | mass density [kg/m3] | viscosity [mPa·s]
303.15 K | 795.5 | 1.733
308.15 K | 791.1 | 1.534
313.15 K | 787 | 1.367
318.15 K | 783.3 | 1.234
323.15 K | 779.5 | 1.1

CCCO [propan-1-ol] + C[S+](C)[O-]
[2], x2 = 0
Settings | mass density [kg/m3] | viscosity [mPa·s]
303.15 K | 795.5 | 1.733
308.15 K | 791.1 | 1.534
313.15 K | 787 | 1.367
318.15 K | 783.3 | 1.234
323.15 K | 779.5 | 1.1

CC(C)O [propan-2-ol]
[1]
Settings | mass density [kg/m3] | viscosity [mPa·s]
303.15 K | 776.4 | 1.792
308.15 K | 772.6 | 1.553
313.15 K | 768.6 | 1.355
318.15 K | 763.9 | 1.182
323.15 K | 758.8 | 1.041

CC(C)O [propan-2-ol] + C[S+](C)[O-]
[2], x2 = 0
Settings | mass density [kg/m3] | viscosity [mPa·s]
303.15 K | 776.4 | 1.792
308.15 K | 772.6 | 1.553
313.15 K | 768.6 | 1.355
318.15 K | 763.9 | 1.182
323.15 K | 758.8 | 1.041
